According to patent US20080262056A1, “Oxindole Oxazolidinones as Antibacterial Agents” (Pfizer Inc, priority 2004, published 2008):
Values after ≈ are worked out from the molar mass of the structure shown.

Columns and labels:
Type in all cases: cell-based
E. faecalis MGH-2 EF 1-1 = test: in vitro antibacterial activity (MIC), E. faecalis; settings: Enterococcus faecalis, MGH2EF11
From the text: (§1) The in vitro antibacterial activity of the compounds of the present invention may be assessed by following procedures recommended in (1) National Committee for Clinical Laboratory Standards (January 2003), Methods for dilution antimicrobial tests for bacteria that grow aerobically, Approved Standard (6th ed), M7-A6, NCCLS, Wayne, Pa.; (2) National Committee for Clinical Laboratory Standards (March 2001), Methods for antimicrobial susceptibility testing of anaerobic bacteria, Approved Standard (5th ed), M11-A4, NCCLS, Wayne, Pa.; (3) National Committee for Clinical Laboratory Standards (Jan. 2003), MIC testing supplemental tables, M100-S13 (for use with M7-A6), NCCLS, Wayne, Pa.; and (4) Murray P R, Baron E J, Jorgensen J H, et al. Manual of Clinical Microbiology (8th ed) Washington, D.C.: American Society for Microbiology Press, 2003. The MIC value is the lowest concentration of drug which prevented macroscopically visible growth under the conditions of the test.

S. pneumoniae SV1 SP-3 = test: in vitro antibacterial activity (MIC), S. pneumoniae; settings: Streptococcus pneumoniae, SV1SP3
From the text: as §1

S. aureus UC-76 SA-1 = test: in vitro antibacterial activity (MIC), S. aureus; settings: for MIC90: Staphylococcus aureus, UC76, S. aureus UC-76 SA-1
From the text: as §1

| SMILES | MIC90 (E. faecalis MGH-2 EF 1-1) [µg/mL] | MIC90 (S. pneumoniae SV1 SP-3) [µg/mL] | MIC90 (S. aureus UC-76 SA-1) [µg/mL] | in vitro antibacterial activity MIC90 (S. aureus UC-76 SA-1; S. aureus UC-76 SA-1) [µg/mL] |
| --- | --- | --- | --- | --- |
| CCC(=O)NC[C@H]1CN(c2ccc3c(c2)CC(=O)N3C2CC2)C(=O)O1 [Example 22, (S)—N-[3-(1-cyclopropyl-2-oxo-2,3-dihydro-1H-indol-5-yl)-2-oxo-oxazolidin-5-ylmethyl]-propionamide] | 4 (≈ 11.6 µM) | 4 (≈ 11.6 µM) | 8 (≈ 23.3 µM) |  |
| CCC(C)N1C(=O)Cc2cc(N3C[C@H](CNC(C)=O)OC3=O)ccc21 (stereo partly drawn) [Example 24, (S)—N-[3-(1-sec-butyl-2-oxo-2,3-dihydro-1H-indol-5-yl)-2-oxo-oxazolidin-5-ylmethyl]-acetamide] | 4 (≈ 11.6 µM) | 4 (≈ 11.6 µM) | 8 (≈ 23.2 µM) |  |
| CCC(=O)NC[C@H]1CN(c2ccc3c(c2)CC(=O)N3C(C)C)C(=O)O1 [Example 14, (S)—N-[3-(1-isopropyl-2-oxo-2,3-dihydro-1H-indol-5-yl)-2-oxo-oxazolidin-5-ylmethyl]-propionamide] | 8 (≈ 23.2 µM) | 4 (≈ 11.6 µM) | 8 (≈ 23.2 µM) |  |
| CC(=O)NC[C@H]1CN(c2ccc3c(c2)CC(=O)N3CCF)C(=O)O1 [Example 9, (S)—N-{3-[1-(2-fluoro-ethyl)-2-oxo-2,3-dihydro-1H-indol-5-yl]-2-oxo-oxazolidin-5-ylmethyl}-acetamide] | 2 (≈ 5.96 µM) | 2 (≈ 5.96 µM) | 8 (≈ 23.9 µM) |  |
| CC(=O)NC[C@H]1CN(c2ccc3c(c2)CC(=O)N3C2CC2)C(=O)O1 [Example 21, (S)—N-[3-(1-cyclopropyl-2-oxo-2,3-dihydro-1H-indol-5-yl)-2-oxo-oxazolidin-5-ylmethyl]-acetamide] | 4 (≈ 12.1 µM) | 2 (≈ 6.07 µM) | 8 (≈ 24.3 µM) |  |
| CC(=O)NC[C@H]1CN(c2ccc3c(c2)CC(=O)N3CC2CC2)C(=O)O1 [Example 26, (S)—N-[3-(1-cyclopropylmethyl-2-oxo-2,3-dihydro-1H-indol-5-yl)-2-oxo-oxazolidin-5-ylmethyl]-acetamide] | 4 (≈ 11.6 µM) | 4 (≈ 11.6 µM) | 8 (≈ 23.3 µM) |  |
| CCC(=O)NC[C@H]1CN(c2ccc3c(c2)CC(=O)N3CC)C(=O)O1 [Example 6, (S)—N-[3-(1-ethyl-2-oxo-2,3-dihydro-1H-indol-5-yl)-2-oxo-oxazolidin-5-ylmethyl]-propionamide] | 2 (≈ 6.04 µM) | 2 (≈ 6.04 µM) | 4 (≈ 12.1 µM) |  |
| CCC(=O)NC[C@H]1CN(c2ccc3c(c2)CC(=O)N3C)C(=O)O1 [Example 2, (S)—N-[3-(1-methyl-2-oxo-2,3-dihydro-1H-indol-5-yl)-2-oxo-oxazolidin-5-ylmethyl]-propionamide] | 2 (≈ 6.3 µM) | 1 (≈ 3.15 µM) | 8 (≈ 25.2 µM) |  |
| CC(=O)NC[C@H]1CN(c2cc(F)c3c(c2)CC(=O)N3C2CC2)C(=O)O1 [Example 23, (S)—N-[3-(1-cyclopropyl-7-fluoro-2-oxo-2,3-dihydro-1H-indol-5-yl)-2-oxo-oxazolidin-5-ylmethyl]-acetamide] | 4 (≈ 11.5 µM) | 4 (≈ 11.5 µM) | 8 (≈ 23 µM) |  |
| CCN1C(=O)Cc2cc(N3C[C@H](CNC(C)=O)OC3=O)cc(F)c21 [Example 7, (S)—N-[3-(1-ethyl-7-fluoro-2-oxo-2,3-dihydro-1H-indol-5-yl)-2-oxo-oxazolidin-5-ylmethyl]-acetamide] | 2 (≈ 5.96 µM) | 2 (≈ 5.96 µM) | 2 (≈ 5.96 µM) |  |
| CCC(=O)NC[C@H]1CN(c2ccc3c(c2)CC(=O)N3C(C)CC)C(=O)O1 (stereo partly drawn) [Example 25, (S)—N-[3-(1-sec-butyl-2-oxo-2,3-dihydro-1H-indol-5-yl)-2-oxo-oxazolidin-5-ylmethyl]-propionamide] | 8 (≈ 22.3 µM) | 8 (≈ 22.3 µM) | 8 (≈ 22.3 µM) |  |
| CC(=O)NC[C@H]1CN(c2ccc3c(c2)CC(=O)N3C(C)C)C(=O)O1 [Example 13, (S)—N-[3-(1-isopropyl-2-oxo-2,3-dihydro-1H-indol-5-yl)-2-oxo-oxazolidin-5-ylmethyl]-acetamide] | 4 (≈ 12.1 µM) | 2 (≈ 6.04 µM) | 4 (≈ 12.1 µM) |  |
| CC(=O)NC[C@H]1CN(c2cc(F)c3c(c2)CC(=O)N3C)C(=O)O1 [Example 3, N-[3-(7-fluoro-1-methyl-2-oxo-2,3-dihydro-1H-indol-5-yl)-2-oxo-oxazolidin-5-ylmethyl]-acetamide] | 4 (≈ 12.4 µM) | 2 (≈ 6.22 µM) | 4 (≈ 12.4 µM) |  |
| CC(=O)NC[C@H]1CN(c2cc(F)c3c(c2)CC(=O)N3CC2CC2)C(=O)O1 [Example 29, (S)—N-[3-(1-cyclopropylmethyl-7-fluoro-2-oxo-2,3-dihydro-1H-indol-5-yl)-2-oxo-oxazolidin-5-ylmethyl]-acetamide] | 2 (≈ 5.53 µM) | 2 (≈ 5.53 µM) | 2 (≈ 5.53 µM) |  |
| CC(=O)NC[C@H]1CN(c2ccc3c(c2)CC(=O)N3C)C(=O)O1 [Example 1, (S)—N-[3-(1-methyl-2-oxo-2,3-dihydro-1H-indol-5-yl)-2-oxo-oxazolidin-5-ylmethyl]-acetamide] | 2 (≈ 6.59 µM) | 1 (≈ 3.3 µM) | 8 (≈ 26.4 µM) |  |
| CCCN1C(=O)Cc2cc(N3C[C@H](CNC(C)=O)OC3=O)ccc21 [Example 17, (S)—N-[2-oxo-3-(2-oxo-1-propyl-2,3-dihydro-1H-indol-5-yl)-oxazolidin-5-ylmethyl]-acetamide] | 4 (≈ 12.1 µM) | 2 (≈ 6.04 µM) | 4 (≈ 12.1 µM) |  |
| CCC(=O)NC[C@H]1CN(c2cc(F)c3c(c2)CC(=O)N3C(C)C)C(=O)O1 [Example 16, (S)—N-[3-(7-fluoro-1-isopropyl-2-oxo-2,3-dihydro-1H-indol-5-yl)-2-oxo-oxazolidin-5-ylmethyl]-propionamide] | 4 (≈ 11 µM) | 4 (≈ 11 µM) | 8 (≈ 22 µM) |  |
| CCC(=O)NC[C@H]1CN(c2ccc3c(c2)CC(=O)N3CC2CC2)C(=O)O1 [Example 27, (S)—N-[3-(1-cyclopropylmethyl-2-oxo-2,3-dihydro-1H-indol-5-yl)-2-oxo-oxazolidin-5-ylmethyl]-propionamide] | 8 (≈ 22.4 µM) | 4 (≈ 11.2 µM) | 8 (≈ 22.4 µM) |  |
| CCC(=O)NC[C@H]1CN(c2cc(F)c3c(c2)CC(=O)N3CCF)C(=O)O1 [Example 12, (S)—N-{3-[7-fluoro-1-(2-fluoro-ethyl)-2-oxo-2,3-dihydro-1H-indol-5-yl]-2-oxo-oxazolidin-5-ylmethyl}-propionamide] | 4 (≈ 10.9 µM) | 4 (≈ 10.9 µM) | 8 (≈ 21.8 µM) |  |
| CCC(=O)NC[C@H]1CN(c2ccc3c(c2)CC(=O)N3CCF)C(=O)O1 [Example 10, (S)—N-{3-[1-(2-fluoro-ethyl)-2-oxo-2,3-dihydro-1H-indol-5-yl]-2-oxo-oxazolidin-5-ylmethyl}-propionamide] | 2 (≈ 5.72 µM) | 2 (≈ 5.72 µM) | 8 (≈ 22.9 µM) | 4 |
| CC(=O)NC[C@H]1CN(c2cc(F)c3c(c2)CC(=O)N3C(C)C)C(=O)O1 [Example 15, (S)—N-[3-(7-fluoro-1-isopropyl-2-oxo-2,3-dihydro-1H-indol-5-yl)-2-oxo-oxazolidin-5-ylmethyl]-acetamide] | 2 (≈ 5.72 µM) | 2 (≈ 5.72 µM) | 4 (≈ 11.4 µM) |  |
| CCCN1C(=O)Cc2cc(N3C[C@H](CNC(=O)CC)OC3=O)ccc21 [Example 18, (S)—N-[2-oxo-3-(2-oxo-1-propyl-2,3-dihydro-1H-indol-5-yl)-oxazolidin-5-ylmethyl]-propionamide] | 8 (≈ 23.2 µM) | 4 (≈ 11.6 µM) | 8 (≈ 23.2 µM) |  |
| CCN1C(=O)Cc2cc(N3C[C@H](CNC(C)=O)OC3=O)ccc21 [Example 5, (S)—N-[3-(1-ethyl-2-oxo-2,3-dihydro-1H-indol-5-yl)-2-oxo-oxazolidin-5-ylmethyl]-acetamide] | 8 (≈ 25.2 µM) | 2 (≈ 6.3 µM) | 8 (≈ 25.2 µM) |  |
| CCCN1C(=O)Cc2cc(N3C[C@H](CNC(=O)CC)OC3=O)cc(F)c21 [Example 20, (S)—N-[3-(7-Fluoro-2-oxo-1-propyl-2,3-dihydro-1H-indol-5-yl)-2-oxo-oxazolidin-5-ylmethyl]-propionamide] | 8 (≈ 22 µM) | 4 (≈ 11 µM) | 8 (≈ 22 µM) |  |
| CC(=O)NC[C@H]1CN(c2ccc3c(c2)CC(=O)N3C(C)CF)C(=O)O1 (stereo partly drawn) [Example 28, (S)—N-{3-[1-(2-fluoro-1-methyl-ethyl)-2-oxo-2,3-dihydro-1H-indol-5-yl]-2-oxo-oxazolidin-5-ylmethyl}-acetamide] | 4 (≈ 11.4 µM) | 2 (≈ 5.72 µM) | 8 (≈ 22.9 µM) |  |
| CC(=O)NC[C@H]1CN(c2cc(F)c3c(c2)CC(=O)N3CCF)C(=O)O1 [Example 11, (S)—N-{3-[7-fluoro-1-(2-fluoro-ethyl)-2-oxo-2,3-dihydro-1H-indol-5-yl]-2-oxo-oxazolidin-5-ylmethyl}-acetamide] | 2 (≈ 5.66 µM) | 1 (≈ 2.83 µM) | 4 (≈ 11.3 µM) |  |
| CCC(=O)NC[C@H]1CN(c2cc(F)c3c(c2)CC(=O)N3CC)C(=O)O1 [Example 8, (S)—N-[3-(1-ethyl-7-fluoro-2-oxo-2,3-dihydro-1H-indol-5-yl)-2-oxo-oxazolidin-5-ylmethyl]-propionamide] | 2 (≈ 5.72 µM) | 4 (≈ 11.4 µM) | 4 (≈ 11.4 µM) |  |
| CCC(=O)NC[C@H]1CN(c2cc(F)c3c(c2)CC(=O)N3C)C(=O)O1 [Example 4, (S)—N-[3-(7-fluoro-1-methyl-2-oxo-2,3-dihydro-1H-indol-5-yl)-2-oxo-oxazolidin-5-ylmethyl]-propionamide] | 4 (≈ 11.9 µM) | 2 (≈ 5.96 µM) | 8 (≈ 23.9 µM) |  |
